How the values were obtained:
Assay type in all cases: cell-based
GLUT = assay: glycolysis assay (oligomycin + Cell Titer-Glo ATP readout) in HT1080 cells; conditions: 10 μM oligomycin, one hour, glycolytically-derived ATP
Source text: The combination of inhibitors of both oxidative phosphorylation and glycolysis synergistically suppress cellular ATP levels. Therefore, our assay utilizes the combination of our glucose uptake inhibitors with oligomycin, a well-characterized inhibitor of ATP synthase. Because oligomycin inhibits ATP derived from oxidative phosphorylation, any remaining ATP production is derived from glycolysis. By reading out cellular ATP levels using the Promega
Titer Glo kit, we can assess the extent of glycolysis inhibition by our glucose uptake inhibitors. Using this experimental set-up in HT1080 cancer cells, we determined the IC50 of glycolysis inhibition for the compounds.
(§1) Determination of glucose uptake/GLUT activity (glycolysis assay): HT1080 cells, DLD1 cells (WT and GLUT1−/−) and human CD4+ T cells were plated in 96-well plates. Cells were exposed to the combination of 10 μM Oligomycin (to block mitochondrial-derived ATP) and the glucose uptake inhibitors disclosed herein for one-hour, after which glycolytically-derived ATP was measured with the Cell Titer-Glo assay kit (Promega). Dose-response curves of the glucose uptake inhibitors disclosed herein were used to determine the IC50 for GLUT activity.

GLUT1 = target: T1, GLUT1 (Homo sapiens, UniProt P11166); assay: glycolysis assay in DLD1 WT cells (rely on GLUT1); conditions: DLD1-WT cells; 10 μM oligomycin, one hour
T1 construct: endogenous in cells; host or cells: DLD1 WT cancer cells
T1 sequence (P11166 1-492): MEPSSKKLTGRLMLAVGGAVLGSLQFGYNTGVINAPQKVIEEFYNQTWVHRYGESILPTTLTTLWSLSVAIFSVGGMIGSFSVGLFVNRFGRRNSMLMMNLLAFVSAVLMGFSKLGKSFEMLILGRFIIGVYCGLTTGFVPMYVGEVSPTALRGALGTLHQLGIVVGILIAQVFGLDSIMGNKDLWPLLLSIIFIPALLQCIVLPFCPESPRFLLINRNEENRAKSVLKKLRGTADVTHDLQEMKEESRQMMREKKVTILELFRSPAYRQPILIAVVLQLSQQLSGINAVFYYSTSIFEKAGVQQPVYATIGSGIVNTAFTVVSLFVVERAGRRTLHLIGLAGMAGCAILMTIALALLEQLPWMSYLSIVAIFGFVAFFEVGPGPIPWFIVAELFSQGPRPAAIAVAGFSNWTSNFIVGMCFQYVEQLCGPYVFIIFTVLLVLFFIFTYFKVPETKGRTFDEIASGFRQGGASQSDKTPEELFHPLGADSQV
Method: (§2) Cells were treated with GLUT inhibitors plus oligomycin and subsequently ATP levels were determined using Cell Titer Glo. […] FIG. 1B reports the IC50 of glycolysis inhibition for selected compounds.
(§3) Accordingly, we have investigated the use of inhibitors of GLUT transporters against activated pro-inflammatory immune cells, including but not limited to activated human CD4+ T cells. In order to understand what GLUT transporters are required to sustain glycolysis in activated T cells, we first utilized the syngeneic cancer cell lines DLD1 WT and DLD GLUT1−/− that rely on GLUT1 and GLUT3 expression, respectively, for glucose transport. Within this system, we have identified small molecules that simultaneously have the property of inhibiting both GLUT1 and GLUT3 mediated glucose transport. In addition, we have confirmed the GLUT1-selective nature of a published small molecule inhibitor of GLUT1 (Chem Med Chem. 2016 Oct. 19; 11(20):2261-2271).
as §1

GLUT3 = target: T2, GLUT3 (Homo sapiens, UniProt P11169); assay: glycolysis assay in DLD1 GLUT1−/− cells (rely on GLUT3); conditions: DLD1-KO (GLUT1−/−) cells; 10 μM oligomycin, one hour
T2 construct: endogenous in cells; host or cells: DLD1 GLUT1−/− (knock-out) cancer cells
T2 sequence (P11169 1-496): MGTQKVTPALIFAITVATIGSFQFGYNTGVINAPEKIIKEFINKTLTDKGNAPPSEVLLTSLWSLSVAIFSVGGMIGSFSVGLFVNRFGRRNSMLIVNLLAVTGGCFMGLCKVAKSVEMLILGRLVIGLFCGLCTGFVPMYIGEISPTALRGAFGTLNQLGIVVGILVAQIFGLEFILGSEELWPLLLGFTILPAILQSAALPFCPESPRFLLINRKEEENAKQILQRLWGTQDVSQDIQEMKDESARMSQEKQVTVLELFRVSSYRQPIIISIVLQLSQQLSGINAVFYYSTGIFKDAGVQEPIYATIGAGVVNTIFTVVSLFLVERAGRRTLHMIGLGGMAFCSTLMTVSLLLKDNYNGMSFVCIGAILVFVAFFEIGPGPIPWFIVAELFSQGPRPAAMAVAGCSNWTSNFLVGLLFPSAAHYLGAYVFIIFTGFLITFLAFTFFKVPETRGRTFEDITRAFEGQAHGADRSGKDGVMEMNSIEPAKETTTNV
Method: as §2, §3, §1

Q: With `CCOc1ccc2nc(-c3cccc(OCC(=O)N[C@@H](C)CC)c3)nc(Nc3ccc(-c4cn[nH]c4)cc3)c2c1` [Ex. 35, (S)-2-(3-(4-((4-(1H-Pyrazol-4-yl)phenyl)amino)-6-ethoxyquinazolin-2-yl)phenoxy)-N-(sec-butyl)acetamide] as the molecule, how does the IC50 (GLUT) read?
A: 134 nM

Q: What about the IC50 (GLUT1) of the same molecule?
A: 130 nM

Q: And the IC50 (GLUT3)?
A: 94.2 nM

Q: Which results are given for `CCOc1ccc2nc(-c3cccc(OCC(=O)N[C@H](C)CC)c3)nc(Nc3ccc(-c4cn[nH]c4)cc3)c2c1` [Ex. 36, (R)-2-(3-(4-((4-(1H-Pyrazol-4-yl)phenyl)amino)-6-ethoxyquinazolin-2-yl)phenoxy)-N-(sec-butyl)acetamide]?
A: IC50 (GLUT): 137 nM; IC50 (GLUT1): 116 nM; IC50 (GLUT3): 130 nM

Q: What does the source list for `CCCOc1ccc2nc(-c3cccc(OCC(=O)NC(C)(C)C)c3)nc(Nc3ccc(-c4cn[nH]c4)cc3)c2c1` [Ex. 37, 2-(3-(4-((4-(1H-Pyrazol-4-yl)phenyl)amino)-6-propoxyquinazolin-2-yl)phenoxy)-N-(tert-butyl)acetamide]?
A: IC50 (GLUT): 128 nM; IC50 (GLUT1): 89.3 nM; IC50 (GLUT3): 158 nM

Q: How did the IC50 (GLUT) turn out when `CC(C)(C)NC(=O)COc1cccc(-c2nc(Nc3ccc(-c4cn[nH]c4)cc3)c3cc(OCCF)ccc3n2)c1` [Ex. 38, 2-(3-(4-((4-(1H-Pyrazol-4-yl)phenyl)amino)-6-(2-fluoroethoxy)quinazolin-2-yl)phenoxy)-N-(tert-butyl)acetamide] was run?
A: 60.8 nM

Q: What about the IC50 (GLUT1) of the same molecule?
A: 65.7 nM

Q: What about the IC50 (GLUT3) of the same molecule?
A: 51.5 nM

Q: How did the IC50 (GLUT) turn out when `COCCOc1ccc2nc(-c3cccc(OCC(=O)NC(C)(C)C)c3)nc(Nc3ccc(-c4cn[nH]c4)cc3)c2c1` [Ex. 39, 2-(3-(4-((4-(1H-Pyrazol-4-yl)phenyl)amino)-6-(2-methoxyethoxy)quinazolin-2-yl)phenoxy)-N-(tert-butyl)acetamide] was run?
A: 34.1 nM

Q: What about the IC50 (GLUT1) of the same molecule?
A: 40.6 nM

Q: What about the IC50 (GLUT3) of the same molecule?
A: 34.2 nM

Q: Which IC50 (GLUT) does the source give for `CC(C)NC(=O)COc1cccc(-c2nc(Nc3ccc(-c4cn[nH]c4)cc3)c3cc(OCCF)ccc3n2)c1` [Ex. 40, 2-(3-(4-((4-(1H-Pyrazol-4-yl)phenyl)amino)-6-(2-fluoroethoxy)quinazolin-2-yl)phenoxy)-N-isopropylacetamide] here?
A: 98 nM

Q: What about the IC50 (GLUT1) of the same molecule?
A: 160 nM

Q: And the IC50 (GLUT3)?
A: 68.3 nM

Q: What does the source list for `CC(C)NC(=O)COc1cccc(-c2nc(Nc3ccc(-c4cn[nH]c4)cc3)c3cc(OC(C)C)ccc3n2)c1` [Ex. 41, 2-(3-(4-((4-(1H-pyrazol-4-yl)phenyl)amino)-6-isopropoxyquinazolin-2-yl)phenoxy)-N-isopropylacetamide]?
A: IC50 (GLUT): 107 nM; IC50 (GLUT1): 48.8 nM; IC50 (GLUT3): 191 nM

Q: Which IC50 (GLUT) does the source give for `CCC(C)NC(=O)COc1cccc(-c2nc(Nc3ccc(-c4cn[nH]c4)cc3)c3cc(OCCOC)ccc3n2)c1` (stereo not drawn) [Ex. 42, 2-(3-(4-((4-(1H-pyrazol-4-yl)phenyl)amino)-6-(2-methoxyethoxy)quinazolin-2-yl)phenoxy)-N-(sec-butyl)acetamide] here?
A: 31.2 nM

Q: And the IC50 (GLUT1)?
A: 30.7 nM

Q: And the IC50 (GLUT3)?
A: 41.6 nM

Q: Which IC50 (GLUT) does the source give for `CCC(C)NC(=O)COc1cccc(-c2nc(Nc3ccc(-c4cn[nH]c4)cc3)c3cc(OCCF)ccc3n2)c1` (stereo not drawn) [Ex. 43, 2-(3-(4-((4-(1H-pyrazol-4-yl)phenyl)amino)-6-(2-fluoroethoxy)quinazolin-2-yl)phenoxy)-N-(sec-butyl)acetamide] here?
A: 46 nM

Q: And the IC50 (GLUT1)?
A: 34.4 nM

Q: What about the IC50 (GLUT3) of the same molecule?
A: 58.9 nM

Q: With `CCC(C)NC(=O)COc1cccc(-c2nc(Nc3ccc(-c4cn[nH]c4)cc3)c3cc(F)ccc3n2)c1` (stereo not drawn) [Ex. 44, 2-(3-(4-((4-(1H-pyrazol-4-yl)phenyl)amino)-6-fluoroquinazolin-2-yl)phenoxy)-N-(sec-butyl)acetamide] as the molecule, how does the IC50 (GLUT) read?
A: 123 nM

Q: And the IC50 (GLUT1)?
A: 91.2 nM

Q: What about the IC50 (GLUT3) of the same molecule?
A: 159 nM

Q: For `CC[C@H](C)NC(=O)COc1cccc(-c2nc(Nc3ccc(-c4cn[nH]c4)cc3)c3cc(OCCOC)ccc3n2)c1` [Ex. 45, (S)-2-(3-(4-((4-(1H-pyrazol-4-yl)phenyl)amino)-6-(2-methoxyethoxy)quinazolin-2-yl)phenoxy)-N-(sec-butyl)acetamide], which IC50 (GLUT) is on record?
A: 25.1 nM

Q: And the IC50 (GLUT1)?
A: 25.2 nM

Q: What about the IC50 (GLUT3) of the same molecule?
A: 40.6 nM

Q: What does the source list for `CC[C@H](C)NC(=O)COc1cccc(-c2nc(Nc3ccc(-c4cn[nH]c4)cc3)c3cc(OCCF)ccc3n2)c1` [Ex. 46, (S)-2-(3-(4-((4-(1H-pyrazol-4-yl)phenyl)amino)-6-(2-fluoroethoxy)quinazolin-2-yl)phenoxy)-N-(sec-butyl)acetamide]?
A: IC50 (GLUT): 37.1 nM; IC50 (GLUT1): 34.8 nM; IC50 (GLUT3): 87 nM

Q: How did the IC50 (GLUT) turn out when `CC[C@H](C)NC(=O)COc1cccc(-c2nc(Nc3ccc(-c4cn[nH]c4)cc3)c3cc(F)ccc3n2)c1` [Ex. 47, (S)-2-(3-(4-((4-(1H-pyrazol-4-yl)phenyl)amino)-6-fluoroquinazolin-2-yl)phenoxy)-N-(sec-butyl)acetamide] was run?
A: 111 nM

Q: And the IC50 (GLUT1)?
A: 94.9 nM

Q: And the IC50 (GLUT3)?
A: 133 nM

Q: What does the source list for `CC[C@H](C)NC(=O)COc1cccc(-c2nc(Nc3ccc(-c4cn[nH]c4)cc3)c3cc(OC)ccc3n2)c1` [Ex. 48, (S)-2-(3-(4-((4-(1H-pyrazol-4-yl)phenyl)amino)-6-methoxyquinazolin-2-yl)phenoxy)-N-(sec-butyl)acetamide]?
A: IC50 (GLUT): 81.5 nM; IC50 (GLUT1): 71.6 nM; IC50 (GLUT3): 110 nM

Q: Which results are given for `CC[C@@H](C)NC(=O)COc1cccc(-c2nc(Nc3ccc(-c4cn[nH]c4)cc3)c3cc(OCCOC)ccc3n2)c1` [Ex. 49, (R)-2-(3-(4-((4-(1H-pyrazol-4-yl)phenyl)amino)-6-(2-methoxyethoxy)quinazolin-2-yl)phenoxy)-N-(sec-butyl)acetamide]?
A: IC50 (GLUT): 30.7 nM; IC50 (GLUT1): 30.3 nM; IC50 (GLUT3): 50.9 nM

Q: `CC[C@@H](C)NC(=O)COc1cccc(-c2nc(Nc3ccc(-c4cn[nH]c4)cc3)c3cc(OCCF)ccc3n2)c1` [Ex. 50, (R)-2-(3-(4-((4-(1H-pyrazol-4-yl)phenyl)amino)-6-(2-fluoroethoxy)quinazolin-2-yl)phenoxy)-N-(sec-butyl)acetamide] was tested. Which IC50 (GLUT) did it give?
A: 44.7 nM

Q: And the IC50 (GLUT1)?
A: 38.5 nM

Q: And the IC50 (GLUT3)?
A: 72.1 nM

Q: `CC[C@@H](C)NC(=O)COc1cccc(-c2nc(Nc3ccc(-c4cn[nH]c4)cc3)c3cc(F)ccc3n2)c1` [Ex. 51, (R)-2-(3-(4-((4-(1H-pyrazol-4-yl)phenyl)amino)-6-fluoroquinazolin-2-yl)phenoxy)-N-(sec-butyl)acetamide] was tested. Which IC50 (GLUT) did it give?
A: 113 nM

Q: And the IC50 (GLUT1)?
A: 106 nM

Q: What about the IC50 (GLUT3) of the same molecule?
A: 125 nM

Q: How did the IC50 (GLUT) turn out when `CC[C@@H](C)NC(=O)COc1cccc(-c2nc(Nc3ccc(-c4cn[nH]c4)cc3)c3cc(OC)ccc3n2)c1` [Ex. 52, (R)-2-(3-(4-((4-(1H-pyrazol-4-yl)phenyl)amino)-6-methoxyquinazolin-2-yl)phenoxy)-N-(sec-butyl)acetamide] was run?
A: 92.1 nM

Q: And the IC50 (GLUT1)?
A: 81.6 nM

Q: What about the IC50 (GLUT3) of the same molecule?
A: 118 nM

Q: `CCC(C)NC(=O)COc1cccc(-c2nc(Nc3ccc(-c4cn[nH]c4)cc3)c3ccc(F)cc3n2)c1` (stereo not drawn) [Ex. 53, 2-(3-(4-((4-(1H-pyrazol-4-yl)phenyl)amino)-7-fluoroquinazolin-2-yl)phenoxy)-N-(sec-butyl)acetamide] was tested. Which IC50 (GLUT) did it give?
A: 283 nM

Q: What about the IC50 (GLUT1) of the same molecule?
A: 222 nM

Q: What about the IC50 (GLUT3) of the same molecule?
A: 271 nM

Q: With `CC[C@H](C)NC(=O)COc1cccc(-c2nc(Nc3ccc(-c4cn[nH]c4)cc3)c3ccc(F)cc3n2)c1` [Ex. 54, (S)-2-(3-(4-((4-(1H-pyrazol-4-yl)phenyl)amino)-7-fluoroquinazolin-2-yl)phenoxy)-N-(sec-butyl)acetamide] as the molecule, how does the IC50 (GLUT) read?
A: 196 nM

Q: What about the IC50 (GLUT1) of the same molecule?
A: 146 nM

Q: What about the IC50 (GLUT3) of the same molecule?
A: 290 nM
